# Source: ChEMBL document CHEMBL3758083, “Design and discovery of 4-anilinoquinazoline-acylamino derivatives as EGFR and VEGFR-2 dual TK inhibitors” (Eur J Med Chem, 2016)
# Experiments:
# HT-29 = assay: Antiproliferative activity against human HT-29 cells after 48 hrs by MTT assay; format: functional, cell-based; details: HT-29, 48 h
# MCF7 = assay: Antiproliferative activity against human MCF7 cells after 48 hrs by MTT assay; format: functional, cell-based; details: MCF7, 48 h
# [1] = target: Epidermal growth factor receptor (Homo sapiens, UniProt P00533); assay: Inhibition of human EGFR preincubated for 10 mins followed by addition of FAM-labeled peptide and incubated for 10 mins by Caliper motility shift assay
# Sequence of Epidermal growth factor receptor (P00533 whole entry): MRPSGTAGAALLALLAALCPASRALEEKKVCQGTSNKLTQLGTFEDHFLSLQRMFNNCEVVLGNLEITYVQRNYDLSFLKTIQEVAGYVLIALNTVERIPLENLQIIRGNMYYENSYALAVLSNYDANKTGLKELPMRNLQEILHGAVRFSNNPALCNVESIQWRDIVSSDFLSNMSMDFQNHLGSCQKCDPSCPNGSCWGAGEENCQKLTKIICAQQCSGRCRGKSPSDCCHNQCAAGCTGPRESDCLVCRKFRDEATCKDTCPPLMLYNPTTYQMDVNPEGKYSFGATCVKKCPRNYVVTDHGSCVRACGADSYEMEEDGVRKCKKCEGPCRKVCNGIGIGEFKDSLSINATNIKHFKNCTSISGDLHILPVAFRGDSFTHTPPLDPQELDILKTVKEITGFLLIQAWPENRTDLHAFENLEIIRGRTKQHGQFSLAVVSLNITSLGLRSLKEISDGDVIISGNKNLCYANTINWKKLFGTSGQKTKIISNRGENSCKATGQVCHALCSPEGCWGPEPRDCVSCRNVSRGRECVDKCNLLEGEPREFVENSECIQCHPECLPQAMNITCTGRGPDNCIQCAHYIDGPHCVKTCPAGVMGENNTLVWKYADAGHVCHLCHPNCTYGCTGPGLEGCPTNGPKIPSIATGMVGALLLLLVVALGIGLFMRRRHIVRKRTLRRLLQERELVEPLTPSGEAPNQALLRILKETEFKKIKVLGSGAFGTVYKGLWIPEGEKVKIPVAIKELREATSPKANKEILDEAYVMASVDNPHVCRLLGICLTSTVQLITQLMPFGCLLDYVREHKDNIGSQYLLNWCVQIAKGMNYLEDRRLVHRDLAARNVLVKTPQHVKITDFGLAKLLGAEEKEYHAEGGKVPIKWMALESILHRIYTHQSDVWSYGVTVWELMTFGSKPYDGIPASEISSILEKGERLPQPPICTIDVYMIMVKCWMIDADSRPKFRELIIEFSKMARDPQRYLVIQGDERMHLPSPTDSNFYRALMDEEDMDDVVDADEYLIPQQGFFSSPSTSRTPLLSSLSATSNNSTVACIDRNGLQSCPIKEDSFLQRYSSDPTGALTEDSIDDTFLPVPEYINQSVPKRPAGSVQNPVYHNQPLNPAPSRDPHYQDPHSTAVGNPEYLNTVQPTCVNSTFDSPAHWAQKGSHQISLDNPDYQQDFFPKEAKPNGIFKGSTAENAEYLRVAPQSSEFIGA
# NCI-H460 = assay: Antiproliferative activity against human NCI-H460 cells after 48 hrs by MTT assay; format: functional, cell-based; details: NCI-H460, 48 h
# [2] = target: Vascular endothelial growth factor receptor 2 (Homo sapiens, UniProt P35968); assay: Inhibition of human VEGFR-2 preincubated for 10 mins followed by addition of FAM-labeled peptide and incubated for 10 mins by Caliper motility shift assay
# Sequence of Vascular endothelial growth factor receptor 2 (P35968 whole entry): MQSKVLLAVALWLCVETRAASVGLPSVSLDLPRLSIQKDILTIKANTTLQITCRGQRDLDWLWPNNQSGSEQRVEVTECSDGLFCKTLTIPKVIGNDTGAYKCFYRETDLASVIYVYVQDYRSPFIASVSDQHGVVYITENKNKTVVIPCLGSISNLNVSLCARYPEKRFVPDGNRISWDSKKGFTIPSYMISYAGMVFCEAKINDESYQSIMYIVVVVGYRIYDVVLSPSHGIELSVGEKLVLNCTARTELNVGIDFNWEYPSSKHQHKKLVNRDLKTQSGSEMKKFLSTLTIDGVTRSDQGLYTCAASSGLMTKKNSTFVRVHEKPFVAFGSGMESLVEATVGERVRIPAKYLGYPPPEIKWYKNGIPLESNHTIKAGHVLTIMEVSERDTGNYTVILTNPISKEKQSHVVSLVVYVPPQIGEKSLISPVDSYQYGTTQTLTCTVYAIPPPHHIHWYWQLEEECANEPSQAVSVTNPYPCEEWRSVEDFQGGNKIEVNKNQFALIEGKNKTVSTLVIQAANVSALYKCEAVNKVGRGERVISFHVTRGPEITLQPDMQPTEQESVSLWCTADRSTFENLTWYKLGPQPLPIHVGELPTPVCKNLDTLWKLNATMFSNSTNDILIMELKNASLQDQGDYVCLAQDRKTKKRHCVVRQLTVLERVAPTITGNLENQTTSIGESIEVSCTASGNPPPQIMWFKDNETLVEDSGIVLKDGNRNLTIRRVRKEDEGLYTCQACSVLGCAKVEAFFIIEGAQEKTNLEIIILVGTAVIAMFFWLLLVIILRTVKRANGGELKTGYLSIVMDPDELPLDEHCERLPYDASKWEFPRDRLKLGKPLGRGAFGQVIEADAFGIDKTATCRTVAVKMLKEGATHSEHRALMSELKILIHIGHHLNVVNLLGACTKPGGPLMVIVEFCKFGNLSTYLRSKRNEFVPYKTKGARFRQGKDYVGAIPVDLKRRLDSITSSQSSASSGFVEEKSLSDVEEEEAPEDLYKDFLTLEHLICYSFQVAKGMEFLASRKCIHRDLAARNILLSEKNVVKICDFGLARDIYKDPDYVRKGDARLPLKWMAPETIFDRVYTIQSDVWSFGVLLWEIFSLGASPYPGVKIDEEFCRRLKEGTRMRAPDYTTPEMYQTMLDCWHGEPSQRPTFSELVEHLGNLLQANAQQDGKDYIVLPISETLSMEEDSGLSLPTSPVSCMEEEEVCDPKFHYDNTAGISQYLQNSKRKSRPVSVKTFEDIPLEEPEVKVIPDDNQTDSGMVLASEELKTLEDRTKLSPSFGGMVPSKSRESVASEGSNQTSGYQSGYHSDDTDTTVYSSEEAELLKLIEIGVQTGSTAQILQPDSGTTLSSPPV
Compound,IC50 (HT-29) [µM],IC50 (MCF7) [µM],IC50 [1] [µM],IC50 (NCI-H460) [µM],IC50 [2] [µM]
COc1cc2c(Nc3ccc(NC(=O)c4cccc(Cl)c4)cc3)ncnc2cc1OCc1ccccc1,–,> 100,> 10,12.5,> 10
COc1cc2c(Nc3ccc(NC(=O)c4ccccc4)cc3)ncnc2cc1OCc1ccccc1,7.37,> 100,> 10,62.4,> 10
COc1cc2c(Nc3ccc(NC(=O)c4ccc(Cl)cc4)cc3)ncnc2cc1OCc1ccccc1,> 100,56.4,> 10,21.1,> 10
COc1cc2c(Nc3ccc(NC(=O)c4ccccc4Cl)cc3)ncnc2cc1OCCCN1CCN(C)CC1,23.2,15.4,0.02,36.2,1.71
COc1cc2c(Nc3ccc(NC(=O)c4ccc(C)cc4)cc3)ncnc2cc1OCc1ccccc1,> 100,> 100,> 10,46.1,> 10
COc1ccc(C(=O)Nc2ccc(Nc3ncnc4cc(OCc5ccccc5)c(OC)cc34)cc2)cc1,> 100,–,> 10,16.1,> 10
COc1cc2c(Nc3ccc(NC(=O)c4ccccc4)cc3)ncnc2cc1OCCCN1CCN(C)CC1,31.3,39,–,27.2,0.56
COc1cc2c(Nc3ccc(NC(=O)c4ccccc4Cl)cc3)ncnc2cc1OCc1ccccc1,> 100,78.2,0.73,28.2,> 10

# The next lines start with the values.
IC50 (HT-29) [µM],IC50 (MCF7) [µM],IC50 [1] [µM],IC50 (NCI-H460) [µM],IC50 [2] [µM],Compound
9.39,40.2,1.35,8,2.62,COc1cc2c(Nc3ccc(NC(=O)c4ccc(Cl)cc4)cc3)ncnc2cc1OCCCN1CCOCC1
21.3,7.8,0.23,–,2.99,COc1cc2c(Nc3ccc(NC(=O)c4cccc(Cl)c4)cc3)ncnc2cc1OCCCN1CCOCC1
6.85,–,> 10,–,2.48,COc1cc2c(Nc3ccc(NC(=O)c4ccc(C)cc4)cc3)ncnc2cc1OCCN1CCCCC1
5.27,4.41,0.15,12,1.81,COc1cc2c(Nc3ccc(NC(=O)c4cccc(Cl)c4)cc3)ncnc2cc1OCCCN1CCN(C)CC1
5.12,0.1,> 10,16,4.19,COc1cc2c(Nc3ccc(NC(=O)c4ccc(Cl)cc4)cc3)ncnc2cc1OCCN1CCCCC1
5.54,53.2,1.33,26,1.86,COc1cc2c(Nc3ccc(NC(=O)c4ccc(Cl)cc4)cc3)ncnc2cc1OCCCN1CCN(C)CC1
26.1,36,4.61,30,4.72,COc1cc2c(Nc3ccc(NC(=O)c4ccccc4)cc3)ncnc2cc1OCCN1CCCCC1
22.1,24.6,1.11,9.49,2.02,COc1ccc(C(=O)Nc2ccc(Nc3ncnc4cc(OCCCN5CCN(C)CC5)c(OC)cc34)cc2)cc1
89.1,37.6,0.76,–,2,COc1cc2c(Nc3ccc(NC(=O)c4ccc(C)cc4)cc3)ncnc2cc1OCCCN1CCOCC1
17.1,24.9,0.69,11.9,0.87,COc1cc2c(Nc3ccc(NC(=O)c4ccc(C)cc4)cc3)ncnc2cc1OCCCN1CCN(C)CC1
7.94,4.34,0.3,–,1.99,COc1cc2c(Nc3ccc(NC(=O)c4cccc(Cl)c4)cc3)ncnc2cc1OCCN1CCCCC1
